# Laboratory results taken from PubChem BioAssay (NCI).
# Where “and” joins values, the source holds several entries; their conditions need not be identical. Equal values may be shown once.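 Each compound was tested at five concentrations against cells in 96-well plates for 48 hours. The concentration for 50% growth inhibition is given as GI50. TGI: concentration producing complete growth inhibition.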
# Columns and labels:
# Assay in all cases: growth of human tumour cells (NCI), 48 h
# SK-MEL-5 melanoma = system: SK-MEL-5 melanoma
# BT-549 breast = system: BT-549 breast
# SF-295 CNS = system: SF-295 CNS
# A549 NSCLC = system: A549 NSCLC
# UACC-62 melanoma = system: UACC-62 melanoma
# M14 melanoma = system: M14 melanoma
# HT29 colon = system: HT29 colon
# K-562 leukemia = system: K-562 leukemia
# CCRF-CEM leukemia = system: CCRF-CEM leukemia
# OVCAR-4 ovarian = system: OVCAR-4 ovarian
Compound,GI50 (SK-MEL-5 melanoma),TGI (SK-MEL-5 melanoma),GI50 (BT-549 breast),TGI (BT-549 breast),GI50 (SF-295 CNS),TGI (SF-295 CNS),GI50 (A549 NSCLC),TGI (A549 NSCLC),GI50 (UACC-62 melanoma),TGI (UACC-62 melanoma),GI50 (M14 melanoma),TGI (M14 melanoma),GI50 (HT29 colon),TGI (HT29 colon),GI50 (K-562 leukemia),TGI (K-562 leukemia),GI50 (CCRF-CEM leukemia),TGI (CCRF-CEM leukemia),GI50 (OVCAR-4 ovarian),TGI (OVCAR-4 ovarian)
COc1cc(-c2cc3ncccc3c3nc(OCCN(C)C)c4cccnc4c23)cc(OC)c1OC,0.468 µM,1.96 µM,0.665 µM,3.19 µM,0.533 µM,2.39 µM,0.346 µM,1.54 µM,0.42 µM,2.45 µM,0.485 µM,10.4 µM,0.383 µM,> 100 µM,0.339 µM,4.63 µM,0.714 µM,8.09 µM,0.418 µM,2.52 µM
CS(=O)(=O)CCNCc1ccc(-c2ccc3ncnc(Nc4ccc(OCc5cccc(F)c5)c(Cl)c4)c3c2)o1,3.21 µM and 4.34 µM,22.9 µM and 15.4 µM,> 10 µM and 19.7 µM and 7.43 µM,> 10 µM and > 47.5 µM and 44.7 µM,6.84 µM and 5.32 µM and 3.54 µM,> 10 µM and > 100 µM and 24.8 µM,7.66 µM and 5.68 µM and 5.76 µM,> 10 µM and > 100 µM and 23.5 µM,> 10 µM and 6.68 µM and 9.22 µM,> 10 µM and > 100 µM and 23.1 µM,8.6 µM and 2.56 µM and 4.22 µM,> 10 µM and > 20.2 µM and 12.2 µM,7.36 µM and 2.2 µM,> 10 µM and 15.8 µM,> 10 µM and 1.99 µM and 2.61 µM,> 10 µM and 4.67 µM and 18.3 µM,> 10 µM and 2.03 µM and 1.56 µM,> 10 µM and 5.67 µM and 20.7 µM,> 10 µM and 7.8 µM and 6.78 µM,> 10 µM and > 86.9 µM and 23.3 µM
Cc1ccccc1C1=C(c2cn(C)c3ccccc23)C(=O)NC1=O,16 µM,> 25 µM,> 21.8 µM,> 25 µM,14.7 µM,> 25 µM,12.2 µM,> 25 µM,> 20.5 µM,> 25 µM,> 25 µM,> 25 µM,12.1 µM,> 25 µM,13.6 µM,> 25 µM,9.75 µM,> 25 µM,> 21.1 µM,> 25 µM
COc1cc(OC)cc(Oc2cnc3cc(N)cc(N)c3n2)c1,15.3 µM,29.3 µM,17.2 µM,39.2 µM,11.6 µM,32.7 µM,22.8 µM,> 100 µM,14.4 µM,27.8 µM,13.4 µM,26.8 µM,13.3 µM,30.6 µM,20.2 µM,46.8 µM,28.5 µM,> 100 µM,9.07 µM,21.8 µM
O=C([O][Hg][c]1ccccc1)c1ccccc1,1.53 µM,3.06 µM,1.23 µM,2.64 µM,12.2 µM,25.5 µM,12.7 µM,40 µM,1.55 µM,4.18 µM,1.36 µM,2.94 µM,2.94 µM,9.82 µM,1.11 µM,4.74 µM,0.324 µM,2.24 µM,1.36 µM,6.22 µM
CC(=O)OCC12CN(C#N)C3C4COC(CC41)C1(C(=O)N(C)c4ccccc41)C32 (stereo not given),–,86.3 µM,–,10.5 µM,–,> 100 µM,–,> 100 µM,–,52.2 µM,–,61.9 µM,–,> 100 µM,–,> 100 µM,–,53 µM,–,49.6 µM
O=C(CN1CCN(Cc2ccccc2Cl)CC1)NC1CC(=O)c2c(Br)sc(Br)c21 (stereo not given),20.3 µM,38.7 µM,19.4 µM,35.7 µM,25.6 µM,57.6 µM,41.9 µM,> 100 µM,16.3 µM,31 µM,17.2 µM,31.7 µM,18 µM,32.2 µM,29.6 µM,> 100 µM,20.7 µM,54.8 µM,18.9 µM,34.4 µM
CC1=C/C=C/C(=O)O[C@@H]([C@H](C)[C@H](O)[C@@H](C)NC(=O)C(C)C)[C@H](C)/C=C/C(C)=C/[C@H]2C=CCC[C@@]2(C)\C=C\1,0.0634 µM and 0.0202 µM,0.81 µM and 0.812 µM,0.836 µM and 1.13 µM,16.3 µM,0.0264 µM,7.5 µM,1.83 µM and 0.328 µM,13.2 µM,0.418 µM and 0.62 µM,8.98 µM,0.0377 µM and 0.0293 µM,0.216 µM and 0.125 µM,0.233 µM and 0.0595 µM,6.85 µM,0.559 µM and 0.565 µM,36.9 µM,5.17 µM and 2.26 µM,17.6 µM,6.47 µM,21.9 µM
Fc1cc(F)c(F)c(S)c1F,–,> 100 µM,–,52 µM,–,> 100 µM,–,> 100 µM,–,> 100 µM,–,> 100 µM,–,> 100 µM,–,> 100 µM,–,> 100 µM,–,> 100 µM
ClCCCSSCCCCl,–,> 100 µM,–,57.9 µM,–,> 100 µM,–,> 100 µM,–,> 100 µM,–,> 100 µM,–,> 69.1 µM,–,> 100 µM,–,> 43.9 µM,–,> 90.7 µM
COC(=O)C1=COC2OC3C(C(C)O)C(=O)OC34C=CC1C24 (stereo not given),–,> 100 µM,–,> 100 µM,–,> 100 µM,–,> 100 µM,–,79.1 µM,–,> 100 µM,–,> 100 µM,–,> 100 µM,–,55.4 µM,–,> 100 µM
COc1ccc(-c2cc(/C=C3\C(=O)Nc4cc(Cl)ccc43)[nH]n2)cc1,1.9 µM,8.32 µM,7.02 µM,62 µM,2.68 µM,12.2 µM,5.49 µM,> 100 µM,2.46 µM,> 100 µM,2.7 µM,> 100 µM,3.32 µM,13.1 µM,1.56 µM,32.3 µM,2.24 µM,28.9 µM,6.79 µM,94.1 µM
